In test [1] the target is T1, ERRγ (Homo sapiens, UniProt P62508).
T1 sequence (P62508 1-458): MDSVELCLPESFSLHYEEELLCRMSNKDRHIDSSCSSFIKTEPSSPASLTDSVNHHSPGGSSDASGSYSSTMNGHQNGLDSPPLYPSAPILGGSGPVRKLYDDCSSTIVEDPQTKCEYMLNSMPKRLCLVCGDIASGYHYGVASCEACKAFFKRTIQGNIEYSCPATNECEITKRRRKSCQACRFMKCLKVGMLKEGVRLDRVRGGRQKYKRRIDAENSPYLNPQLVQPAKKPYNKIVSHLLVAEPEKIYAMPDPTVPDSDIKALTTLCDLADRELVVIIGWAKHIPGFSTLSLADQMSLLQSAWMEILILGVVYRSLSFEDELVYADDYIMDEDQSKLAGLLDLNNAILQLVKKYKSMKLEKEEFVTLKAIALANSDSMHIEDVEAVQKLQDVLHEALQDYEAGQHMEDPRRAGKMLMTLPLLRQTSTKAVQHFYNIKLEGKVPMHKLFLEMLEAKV
Conditions: purportedly, Zuercher et al. 2005; cited from earlier work.

In test [2] the target is T2, ERRβ (Homo sapiens, UniProt O95718).
T2 sequence (O95718 1-433): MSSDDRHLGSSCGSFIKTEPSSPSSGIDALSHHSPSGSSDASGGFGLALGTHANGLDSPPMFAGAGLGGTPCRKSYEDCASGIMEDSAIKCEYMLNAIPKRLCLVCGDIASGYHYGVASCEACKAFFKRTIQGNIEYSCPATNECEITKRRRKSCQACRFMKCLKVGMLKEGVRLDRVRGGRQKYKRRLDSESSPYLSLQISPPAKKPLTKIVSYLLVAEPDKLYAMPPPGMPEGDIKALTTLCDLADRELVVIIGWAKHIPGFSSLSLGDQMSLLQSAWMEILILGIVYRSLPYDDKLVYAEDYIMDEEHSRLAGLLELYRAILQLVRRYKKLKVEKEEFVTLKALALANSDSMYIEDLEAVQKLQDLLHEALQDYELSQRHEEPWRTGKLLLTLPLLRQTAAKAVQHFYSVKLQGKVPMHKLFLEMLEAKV
Conditions: purportedly, Zuercher et al. 2005; cited from earlier work.

In test [3] the test system is primary mouse myotubes. The test can be described thus: Citrate synthase assay in primary mouse myotubes. The format is cell-based. Conditions: 24 hours. As for the experimental part: (§1) Primary mouse myoblasts from FVB mice were isolated and maintained as described in Bare et al. For experimentation, mouse myoblasts were grown to 80% confluence in F-10/Ham's media containing 20% fetal bovine serum, 1% Penicillin/Streptomycin and 2.5 ng/mL bFGF (human recombinant). The cells were then plated to 700,000 cells per well in 6-well plates, and allowed to differentiate into myotubes for 36 to 48 hours in DMEM containing 5% equine serum and Penicillin/Streptomycin. […] Assays performed included analysis of gene expression by real time quantitative PCR (RT-PCR), cytochrome c ELISA, citrate synthase assay, fatty acid oxidation assay, and a respiration assay. […] Each dose was tested in trplicate, and a set of wells treated with an equivalent volume of DMSO used was included in every experimental readout for control purposes.
The citrate synthase assay was performed following the procedure described in above in this application.

Test [4] concerns primary mouse myotubes. The test can be described thus: Gene expression by real time quantitative PCR in primary mouse myotubes. The format is cell-based. Conditions: 24 h. How it is done:
as §1
For the purpose of assessing gene expression by RT-PCR, RNA was isolated from cell lysates, and cDNA was subsequently synthesized from this RNA. For RNA isolation, cells were homogenized in TRIzol (Invitrogen, catalog number 15596-026, Carlsbad, Calif.), and total RNA was isolated following the manufacturer's instructions. RNA was quantified using the spectrophotometer.
Reverse transcription was performed using the BD Sprint™ PowerScriptT™ kit from BD Biosciences (catalog number 639562). Quantitative real time PCR for the following genes was performed using Assay-on-Demand primer probes from Applied Biosystems (See Post-text Table 8-1 for catalog numbers): B2M, ERRγ, ERRβ, ERRα, PGC-1α, PGC-1β, PPARα, PPARγ, PPARδ, COX-4, cytochrome c, UQCRB, CPT-1b, LCAD, MCAD, IDH3a, ATP-5b, UCP-2, and UCP-3.
Taqman real time quantitative PCR was performed and analyzed following the manufacturer's instructions (Applied Biosystems). Specifically, amplification was performed in triplicate, in a 10 μl reaction mixture. The reaction mixture included: 1× TaqMan® Universal PCR Master Mix (Applied Biosystems, catalog number 4304437), 1× of Assay-on-Demand primer probe, and 2 μl of cDNA sample. Gene expression was calculated by normalizing to total cDNA as measured by B2M endogenous control (Applied Biosystems, catalog number Mm00437762_m1). The samples were initially incubated for 2 min at 50° C. for optimum uracyl-N-glycosylase activity. The PCR program started with a 95° C. denaturing for 10 min, followed by 40 cycles of 95° C./15 sec and 60° C./1 min in a 384-well thermal cycler (Perkin-Elmer Applied Biosystems). Each amplification run contained “No Template” controls (buffer and primers only). Amplification data were collected by the 7700 Sequence Detector and analyzed using the Sequence Detection System software developed by Perkin-Elmer (Applied Biosystems). The fractional cycle number reflecting a positive PCR result is called the cycle threshold (Ct).
Average gene expression values were calculated for each group relative to B2M, using 2^−ΔΔCt (as described by Applied Biosystems, Foster City, Calif.) with the expression in the vehicle treated cells (0 μM) normalized to a value of 1. The data are expressed as mean±SEM (n=3 replicate wells). Statistical significance was measured using Student's t test.

The test system of test [5] is ERs. Conditions: Zuercher et al. 2005; cited from earlier work.
Test [6] concerns the target T3, (His)6-hERRγ LBD (Homo sapiens, UniProt P62508).
T3 sequence (P62508 233-457 limits assumed): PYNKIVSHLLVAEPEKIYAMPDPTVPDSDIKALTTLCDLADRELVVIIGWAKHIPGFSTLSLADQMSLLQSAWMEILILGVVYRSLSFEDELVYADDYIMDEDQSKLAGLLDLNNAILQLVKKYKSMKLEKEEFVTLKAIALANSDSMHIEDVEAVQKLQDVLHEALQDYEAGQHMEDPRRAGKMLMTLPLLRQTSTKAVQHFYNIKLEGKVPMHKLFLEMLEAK
The test can be described thus: FRET assay of agonist-induced activation of ERRγ with coactivator peptide PGC-1α. Conditions: for maximal increase in FRET signal: highest concentration tested / saturating concentrations. Format: biochemical. As for the experimental part: The FRET assay is designed to detect agonist-induced activation of ERRγ in the presence of the coactivator peptide PGC-1α. […] Mix 1 contained antibody, hERRγ LBD in buffer in a volume of 19 μL and was added to 30 μL of Mix 2 which contained Cy5-peptide in buffer (1. 6xHis-ERRγ-LBD, 3.6 mg/ml, MW 27 KDa; 2. Cy5-PGC-1 peptide from AnaSpec; 3. Other buffer components from Sigma; 4. EU-antiHis6-Ab from Perkin Elmer; and 5. Test compounds.). The assays were carried out in black 384-well plates and incubated at room temperature for 3 hrs before FRET signals were measured using a Wallac Victor 2 (Perkin Elmer) plate reader. The ratio of emission signals (665 nm/615 nm) was used to determine the FRET assay response. In some cases, the FRET signal to background ratio was used and this is simply defined as the FRET ratio in the presence of protein […] FRET ratio in the absence of protein. The test compounds were dissolved in DMSO at 10 mM and used as indicated.
The ability of agonist compounds to induce an increased FRET response between the Europium-labeled anti-(His)6 antibody/(His)6-hERRγ LBD complex and Cy5-[…] […] The compounds were solubilized in 10 mM DMSO and the concentration range of the titration was from 100 μM down to 2 nM. The final DMSO concentration was 2%. A DMSO control (no compound) at 2% was also prepared. All samples were made in duplicate.

For test [7], the system named is primary mouse myotubes. The test can be described thus: Cytochrome c ELISA in primary mouse myotubes. The format is cell-based. Conditions: 30 μM, 24 hours, vs vehicle. How it is done: as §1
The cytochrome c enzyme-linked immunosorbent assay (ELISA) was performed using the RatMouse Cytochrome c Immunoassay kit from R&D Systems (catalog number MCTC0, R&D Systems, Minneapolis, Minn.) following the manufacturer's instructions.
On the technique in general: In an ELISA, binding on a coated surface is turned into a signal by an enzyme label.

For test [8], the target named is T4, ERRα (Homo sapiens, UniProt P11474).
T4 sequence (P11474 1-423): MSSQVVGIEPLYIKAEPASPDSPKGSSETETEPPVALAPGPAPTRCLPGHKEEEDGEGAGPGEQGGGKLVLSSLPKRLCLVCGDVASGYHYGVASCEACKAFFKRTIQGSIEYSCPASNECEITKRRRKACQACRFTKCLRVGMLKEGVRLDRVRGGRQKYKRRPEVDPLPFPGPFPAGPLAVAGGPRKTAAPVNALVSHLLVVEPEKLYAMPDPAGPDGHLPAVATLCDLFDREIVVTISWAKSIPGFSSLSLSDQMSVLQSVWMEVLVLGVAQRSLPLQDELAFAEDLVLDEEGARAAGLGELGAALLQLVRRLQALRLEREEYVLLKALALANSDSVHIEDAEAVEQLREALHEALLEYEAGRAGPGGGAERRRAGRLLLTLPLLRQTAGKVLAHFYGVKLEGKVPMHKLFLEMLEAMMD
Conditions: Zuercher et al. 2005; cited from earlier work.

Test [9] has as its system primary mouse myotubes. The test can be described thus: Respiration assay (oxygen consumption, Clark electrode) in primary mouse myotubes. Format: cell-based. Conditions: 30 μM, 24 hr. As for the experimental part: as §1
Cells were washed once with phosphate-buffered saline (PBS) and treated for 5 min at 37° C. with 2 ml of trypsin (Mediatech, catalog number 25-052-CI). Without removing trypsin, 10 ml of DMEM plus 10% FBS was added into each well. The cells were transferred to a 15 ml tube and centrifuged for 5 min at 1000 rpm. The cells were washed once with the medium and pelleted before being resuspended in the assay buffer containing 25 mM glucose (Sigma, catalog number G-5400), 1 mM pyruvate (Invitrogen, catalog number 11360-070) and 2% bovine serum albumin (BSA) (MP Biomedicals, catalog number 103703) in D-PBS (Invitrogen, catalog number 14040-133). The cell suspension was diluted to 1×10^6 cells per ml in the assay buffer and kept at 37° C. until used. Oxygen consumption was measured with a Clark electrode according to the instructions provided by Hansatech (Norfolk, UK). One half of the cell suspension was used for each measurement. […] The rate of respiration was measured by calculating the slope of the flux of oxygen consumption using the software provided by the manufacturer.

[10] abbreviates: 30 μM, relative to B2M, vehicle = 1.

As for `CC(C)c1ccc(/C=N/NC(=O)c2ccc(O)cc2)cc1` [AJQ710, 4-hydroxy-N′-(4-isopropylphenylmethylidene)-benzohydrazide], in [1], the “activation of ERRγ” value was “activates”. Besides, the “activation of ERRβ (printed ERRP)” value in test [2] is “activates”. The “increase in citrate synthase activity” value in [3] (3 μM) stood at 9%. The “increase in citrate synthase activity” value in test [3] (10 μM) is recorded as 8%. Also, in test [3] (30 μM), the “increase in citrate synthase activity” value is reported as 28%. This compound also came in with a UCP-2 highest expression in [4] (10 μM, relative to B2M, vehicle = 1) of 1.5 fold. Also, in test [4] (setting [10]), the ATP-5b expression increase was determined as 1.6 fold, the COX-4 expression increase is recorded as 2 fold, the CPT-1b expression increase result was “over 3 fold” and the ERRα expression increase came to 3.7 fold. In addition, in test [4] (setting [10]), the ERRβ expression increase was found to be 1.5 fold, the ERRγ expression is on record as 1.4 fold, the IDH3α expression increase entry is on record as “over 2 fold” and the LCAD expression increase is reported as 2.8 fold. Moreover, in test [4] (setting [10]), the MCAD expression increase worked out at 1.6 fold, the PGC-1α expression was determined as 1.9 fold, the PPARγ maximal expression is listed as 2.2 fold and the UCP-3 expression increase result is “over 3 fold”. In test [4] (setting [10]), the UQCRB expression increase came out at 2 fold and the “cytochrome c expression increase” value is recorded as 3.7 fold. In addition, in [4] (1-30 μM), the PPARα expression entry is listed as “no change in expression” and the PPARδ expression result is “no change in expression”. Moreover, the PGC-1β expression in test [4] (relative to B2M, vehicle = 1) worked out at 1.8 fold. The “activation of the ERs” value in [5] is on record as “does not activate”. For the same compound, the “maximal increase in FRET signal” value in test [6] is reported as at most 60%. The “increase of cytochrome c protein” value in test [7] worked out at 88%. Moreover, the “activation of ERRα” value in test [8] is “does not activate”. In test [9] (vs vehicle treated controls), the “increase in basal respiration” value came to 37%. Also, in test [9] (vs vehicle-treated control cells), the “increase in respiration rate in the presence of FCCP” value stood at 32%. Besides, in [9] (not statistically significant), the “increase in oligomycin-insensitive respiration (proton leak)” value came to 36%.
For `CCN(CC)c1ccc(/C=N/NC(=O)c2ccc(O)cc2)cc1` [LCN446, N′-(4-(diethylamino)phenylmethylidene)-4-hydroxybenzohydrazide], the “maximal increase in FRET signal” value in test [6] is on record as 70%. Further, the EC50 (in general, the concentration that produces a half-maximal response) in [6] (titration 100 μM down to 2 nM, 2% DMSO, duplicate, read-out: EC50 of FRET response) was determined as 540 nM.

Values taken from patent publication US20090281191A1, “USE OF ORGANIC COMPOUNDS” (priority 2006, published 2009).
